Key:
[1] = Log P by HPLC on reversed phase columns (EEC directive 79/831 Annex V.A8); format: physicochemical; settings: method [a]: LC-UV, acidic range, 0.1% formic acid in water and acetonitrile; for chromatographic logP: reversed phase HPLC columns
Procedure: Log P values: Measurement of Log P values was performed according to EEC directive 79/831 Annex V.A8 by HPLC (High Performance Liquid Chromatography) on reversed phase columns with the following methods: • ^[a] Log P value is determined by measurement of LC-UV, in an acidic range, with 0.1% formic acid in water and acetonitrile as eluent (linear gradient from 10% acetonitrile to 95% acetonitrile). • ^[b] Log P value is determined by measurement of LC-UV, in a neutral range, with 0.001 molar ammonium acetate solution in water and acetonitrile as eluent (linear gradient from 10% acetonitrile to 95% acetonitrile). • ^[c] Log P value is determined by measurement of LC-UV, in an acidic range, with 0.1% phosphoric acid and acetonitrile as eluent (linear gradient from 10% acetonitrile to 95% acetonitrile). If more than one Log P value is available within the same method, all the values are given and separated by “+”. Calibration was done with straight-chain alkan2-ones (with 3 to 16 carbon atoms) with known Log P values (measurement of Log P values using retention times with linear interpolation between successive alkanones). Lambda-max-values were determined using UV-spectra from 200 nm to 400 nm and the peak values of the chromatographic signals.

Uromyces appendiculatus = assay: In vivo preventive test on Uromyces appendiculatus (bean rust); settings: 264 h, 500 ppm of active ingredient, preventive spray, evaluated 11 days after inoculation, read-out: efficacy
Procedure: (§1) Example D: In Vivo Preventive Test on Uromyces appendiculatus (Bean Rust) [table] The active ingredients were made soluble and homogenized in a mixture of dimethyl sulfoxide/acetone//Tween® 80 and then diluted in water to the desired concentration. Young plants of bean were treated by spraying the active ingredient prepared as described above. Control plants were treated only with an aqueous solution of acetone/dimethyl sulfoxide/Tween® 80. After 24 hours, the plants were contaminated by spraying the leaves with an aqueous suspension of Uromyces appendiculatus spores. The contaminated bean plants were incubated for 24 hours at 20° C. and at 100% relative humidity and then for 10 days at 20° C. and at 70-80% relative humidity. The test was evaluated 11 days after the inoculation. 0% means an efficacy which corresponds to that of the control plants while an efficacy of 100% means that no disease was observed.

Puccinia recondita = assay: In vivo preventive test on Puccinia recondita (brown rust on wheat); settings: 264 h, 500 ppm of active ingredient, preventive spray, evaluated 11 days after inoculation, read-out: efficacy
Procedure: as §1, with “A:” for “D:”, “Puccinia recondita (Brown Rust on Wheat)” for “Uromyces appendiculatus (Bean Rust)”, “wheat” for “bean”, “Puccinia recondita” for “Uromyces appendiculatus”

Sphaerotheca fuliginea = assay: In vivo preventive test on Sphaerotheca fuliginea (powdery mildew on cucurbits); settings: Podosphaera fuliginea, 360 h; 500 ppm of active ingredient; gherkin, preventive spray, evaluated 15 days after inoculation; read-out: efficacy
Procedure: Example C: In Vivo Preventive Test on Sphaerotheca fuliginea (Powdery Mildew on Cucurbits) [table] The active ingredients were made soluble and homogenized in a mixture of dimethyl sulfoxide/acetone//Tween® 80 and then diluted in water to the desired concentration. Young plants of gherkin were treated by spraying the active ingredient prepared as described above. Control plants were treated only with an aqueous solution of acetone/dimethyl sulfoxide/Tween® 80. After 24 hours, the plants were contaminated by spraying the leaves with an aqueous suspension of Sphaerotheca fuliginea spores. The contaminated gherkin plants were incubated for 72 hours at 18° C. and at 100% relative humidity and then for 12 days at 20° C. and at 70-80% relative humidity. The test was evaluated 15 days after the inoculation. 0% means an efficacy which corresponds to that of the control plants while an efficacy of 100% means that no disease was observed.

[2] = test system: Blumeria graminis fsp. hordei; assay: In vivo preventive Blumeria test (barley); settings: 168 h, 500 ppm of active ingredient, preventive spray, evaluated 7 days after inoculation, read-out: efficacy
Procedure: Example E: In Vivo Preventive Blumeria Test (Barlev) [table] To produce a suitable preparation of active compound, 1 part by weight of active compound or active compound combination was mixed with the stated amounts of solvent and emulsifier, and the concentrate was diluted with water to the desired concentration. To test for preventive activity, young plants were sprayed with the preparation of active compound or active compound combination at the stated rate of application. After the spray coating had been dried, the plants were dusted with spores of Blumeria graminis fsp. hordei. The plants were placed in the greenhouse at a temperature of approximately 18° C. and a relative atmospheric humidity of approximately 80% to promote the development of mildew pustules. The test was evaluated 7 days after the inoculation. 0% means an efficacy which corresponds to that of the untreated control, while an efficacy of 100% means that no disease is observed.

Septoria tritici = assay: In vivo preventive test on Septoria tritici (leaf spot on wheat); settings: Zymoseptoria tritici, 576 h, 500 ppm of active ingredient, preventive spray, evaluated 24 days after inoculation, read-out: efficacy
Procedure: Example B: In Vivo Preventive Test on Septoria tritici (Leaf Spot on Wheat) [table] The active ingredients were made soluble and homogenized in a mixture of dimethyl sulfoxide/acetone//Tween® 80 and then diluted in water to the desired concentration. Young plants of wheat were treated by spraying the active ingredient prepared as described above. Control plants were treated only with an aqueous solution of acetone/dimethyl sulfoxide/Tween® 80. After 24 hours, the plants were contaminated by spraying the leaves with an aqueous suspension of Septoria tritici spores. The contaminated wheat plants were incubated for 72 hours at 18° C. and at 100% relative humidity and then for 21 days at 20° C. and at 90% relative humidity. The test was evaluated 24 days after the inoculation. 0% means an efficacy which corresponds to that of the control plants while an efficacy of 100% means that no disease was observed.

## CC(O)(Cn1cncn1)c1ccc(Oc2ccc(Cl)nc2)nc1Cl (stereo not drawn) [I-03]
[1]; compounds of formula (I)
  LogP: 2.04^[a]

## OC(Cn1cncn1)c1cnc(Oc2ccc(C(F)(F)F)nc2)cc1C(F)(F)F (stereo not drawn) [I-08]
[1]; compounds of formula (I)
  LogP: 2.35^[a]

## OC(Cn1cncn1)c1ccc(Oc2ccc(Cl)nc2)nc1C(F)(F)F (stereo not drawn) [I-10]
[1]; compounds of formula (I)
  LogP: 2.07^[a]

## OC(Cn1cncn1)c1ccc(Oc2ccc(Cl)nc2)nc1Cl (stereo not drawn) [I-11]
[1]; compounds of formula (I)
  LogP: 1.79^[a]

## OC(Cn1cncn1)c1ccc(Oc2ccc(Br)nc2)nc1C(F)(F)F (stereo not drawn) [I-12, 1-[6-[(6-bromo-3-pyridyl)oxy]-2-(trifluoromethyl)-3-pyridyl]-2-(1,2,4-triazol-1-yl)ethanol]
Uromyces appendiculatus
  pest or weed control at 500 ppm: 90 to 100%
Puccinia recondita
  pest or weed control at 500 ppm: 80 to 89%
Sphaerotheca fuliginea
  pest or weed control at 500 ppm: 90 to 100%
[2]
  pest or weed control at 500 ppm: 90 to 100%
[1]; compounds of formula (I)
  chromatographic logP: 2.03
Septoria tritici
  pest or weed control at 500 ppm: 90 to 100%

## OC(Cn1cncn1)c1cnc(Oc2ccc(Cl)nc2)cc1C(F)(F)F (stereo not drawn) [I-14, 1-[6-[(6-chloro-3-pyridyl)oxy]-4-(trifluoromethyl)-3-pyridyl]-2-(1,24-triazol-1-yl)ethanol]
Uromyces appendiculatus
  pest or weed control at 500 ppm: 90 to 100%
Puccinia recondita
  pest or weed control at 500 ppm: 90 to 100%
Sphaerotheca fuliginea
  pest or weed control at 500 ppm: 90 to 100%
[2]
  pest or weed control at 500 ppm: 90 to 100%
[1]; compounds of formula (I)
  chromatographic logP: 1.99
Septoria tritici
  pest or weed control at 500 ppm: 90 to 100%

## CC(=O)c1ccc(Oc2ccc(Br)nc2)nc1C(F)(F)F [V-01, 1-[6-[(6-bromo-3-pyridyl)oxy]-2-(trifluoromethyl)-3-pyridyl]ethanone]
[1]; compounds of formula (V)
  chromatographic logP: 3.12

## CC(=O)c1ccc(Oc2ccc(C(F)(F)F)nc2)nc1C(F)(F)F [V-02, 1-[2-(trifluoromethyl)-6-[[6-(trifluoromethyl)-3-pyridyl]oxy]-3-pyridyl]ethanone]
[1]; compounds of formula (V)
  chromatographic logP: 3.26

## CC(=O)c1ccc(Oc2ccc(Cl)nc2)nc1Cl [V-03]
[1]; compounds of formula (V)
  LogP: 2.66^[a]

## CC(=O)c1cnc(Oc2ccc(C(F)(F)F)nc2)cc1C(F)(F)F [V-04]
[1]; compounds of formula (V)
  LogP: 3.44^[a]

## CC(=O)c1ccc(Oc2ccc(Cl)nc2)nc1C(F)(F)F [V-05]
[1]; compounds of formula (V)
  LogP: 3.00^[a]

## CC(=O)c1cnc(Oc2ccc(Cl)nc2)cc1C(F)(F)F [V-06, 1-[6-[(6-chloro-3-pyridyl)oxy]-4-(trifluoromethyl)-3-pyridyl]ethanone]
[1]; compounds of formula (V)
  chromatographic logP: 3

## CC(=O)c1cnc(Oc2ccc(Br)nc2)cc1C(F)(F)F [V-07]
[1]; compounds of formula (V)
  LogP: 3.17^[a]

## CC(=O)c1ccc(Oc2ccc(F)nc2)nc1Cl [V-08]
[1]; compounds of formula (V)
  LogP: 2.39^[a]

## CC(=O)c1ccc(Oc2ccc(C)nc2)nc1Cl [V-09]
[1]; compounds of formula (V)
  LogP: 1.42^[a]

## CC(=O)c1cnc(Oc2ccc(Cl)nc2)cc1Cl [V-10]
[1]; compounds of formula (V)
  LogP: 2.59^[a]

## O=C(CCl)c1ccc(Oc2ccc(Br)nc2)nc1C(F)(F)F [VI-01, 1-[6-[(6-bromo-3-pyridyl)oxy]-2-(trifluoromethyl)-3-pyridyl]-2-chloro-ethanone]
[1]; compounds of formula (VI)
  chromatographic logP: 3.44

## O=C(CCl)c1ccc(Oc2ccc(C(F)(F)F)nc2)nc1C(F)(F)F [VI-02, 2-chloro-1-[2-(trifluoromethyl)-6-[[6-(trifluoromethyl)-3-pyridyl]oxy]-3-pyridyl]ethanone]
[1]; compounds of formula (VI)
  chromatographic logP: 3.6

## O=C(CCl)c1ccc(Oc2ccc(Cl)nc2)nc1Cl [VI-03]
[1]; compounds of formula (VI)
  LogP: 3.00^[a]

## O=C(CCl)c1cnc(Oc2ccc(C(F)(F)F)nc2)cc1C(F)(F)F [VI-04]
[1]; compounds of formula (VI)
  LogP: 3.64^[a]

## O=C(CCl)c1ccc(Oc2ccc(Cl)nc2)nc1C(F)(F)F [VI-05]
[1]; compounds of formula (VI)
  LogP: 3.27^[a]

## O=C(Cn1cncn1)c1ccc(Oc2ccc(Br)nc2)nc1C(F)(F)F [VII-01, 1-[6-[(6-bromo-3-pyridyl)oxy]-2-(trifluoromethyl)-3-pyridyl]-2-(1,2,4-triazol-1-yl)ethanone]
Uromyces appendiculatus
  pest or weed control at 500 ppm: 90 to 100%
Puccinia recondita
  pest or weed control at 500 ppm: 80 to 89%
Sphaerotheca fuliginea
  pest or weed control at 500 ppm: 90 to 100%
[1]; compounds of formula (VII)
  chromatographic logP: 2.23
Septoria tritici
  pest or weed control at 500 ppm: 90 to 100%

## O=C(Cn1cncn1)c1ccc(Oc2ccc(C(F)(F)F)nc2)nc1C(F)(F)F [VII-02, 2-(1,2,4-triazol-1-yl)-1-[2-(trifluoromethyl)-6-[[6-(trifluoromethyl)-3-pyridyl]oxy]-3-pyridyl]ethanone]
Uromyces appendiculatus
  pest or weed control at 500 ppm: 90 to 100%
Puccinia recondita
  pest or weed control at 500 ppm: 80 to 89%
Sphaerotheca fuliginea
  pest or weed control at 500 ppm: 90 to 100%
[1]; compounds of formula (VII)
  chromatographic logP: 2.43
Septoria tritici
  pest or weed control at 500 ppm: 90 to 100%

## O=C(Cn1cncn1)c1ccc(Oc2ccc(Cl)nc2)nc1Cl [VII-03]
[1]; compounds of formula (VII)
  LogP: 1.99^[a]

## O=C(Cn1cncn1)c1cnc(Oc2ccc(C(F)(F)F)nc2)cc1C(F)(F)F [VII-04]
[1]; compounds of formula (VII)
  LogP: 2.66^[a]

## O=C(Cn1cncn1)c1ccc(Oc2ccc(Cl)nc2)nc1C(F)(F)F [VII-05]
[1]; compounds of formula (VII)
  LogP: 2.23^[a]

## O=C(Cn1cncn1)c1cnc(Oc2ccc(Cl)nc2)cc1C(F)(F)F [VII-06, 1-[6-[(6-chloro-3-pyridyl)oxy]-4-(trifluoromethyl)-3-pyridyl]-2-(1,2,4-triazol-1-yl)ethanone]
Sphaerotheca fuliginea
  pest or weed control at 500 ppm: 90 to 100%
[1]; compounds of formula (VII)
  chromatographic logP: 2.21
Septoria tritici
  pest or weed control at 500 ppm: 80 to 89%

## O=C(Cn1cncn1)c1cnc(Oc2ccc(Br)nc2)cc1C(F)(F)F [VII-07]
[1]; compounds of formula (VII)
  LogP: 2.94^[a]

Reference: patent US20200017467A1, “NOVEL TRIAZOLE DERIVATIVES” (BAYER CROPSCIENCE AKTIENGESELLSCHAFT, priority 2017, published 2020)
